From PMC3884022 (Journal of Hematology & Oncology, 2014)

Experiments:
[1] = cited from earlier work
[2] = Docetaxel PK samples (end of infusion), arm 2; type: in vivo, human; conditions: arm 2, IV docetaxel with MK-2206
Description: For the Q3W schedule, samples were taken in cycle 1 on days 1 to 3 as per the QOD schedule, then on days 5, 7, 15, and in cycle 2 on day 1. Blood samples were collected predose and just before the end of the infusion for carboplatin, paclitaxel, and docetaxel for archival and possible PK analysis. Another sample was taken 30 minutes into the infusion of paclitaxel. These samples were archived for possible future analysis to investigate if any unexpected toxicities may have been as a result of a PK interaction.

CC(=O)O[C@@]12CO[C@@H]1C[C@H](O)[C@@]1(C)C(=O)[C@H](O)C3=C(C)[C@@H](OC(=O)[C@H](O)[C@@H](NC(=O)OC(C)(C)C)c4ccccc4)C[C@@](O)([C@@H](OC(=O)c4ccccc4)[C@H]21)C3(C)C [docetaxel]
mean end-of-infusion concentration, range of mean values in the literature [1]: 1.68 to 4.06 µg/mL
mean end-of-infusion concentration [2]: 3.01 µg/mL
